Legend:
[1] = Titration of lipids to measure pKa; format: physicochemical; details: lipids titrated
Description: The lipids were titrated to measure their pKa values.

mouse epo mRNA = test: In vivo EPO mRNA stability: epo mRNA levels after injection of lipid encapsulated mouse epo mRNA; design: species or system Female Balb/c mice; details: nanoparticles with the cationic lipid, i.v. tail vein, 0.03 and 0.1 mg/kg mRNA, blood at 6 hours; FIG. 14
Procedure: Levels of mRNA in plasma were measured and compared following injection of nanoparticles comprising different cationic lipids. Female Balb/c mice (6-8 week old) were used for evaluation of plasma erythropoietin (epo) levels in vivo following injection of lipid encapsulated mouse epo mRNA. All formulations were administered intravenously via tail vein injection at a dose of 0.03 and 0.1 mg/kg at a dosing volume of 5 ml/kg. Terminal blood collection was performed via cardiac puncture under 2% isoflurane at 6 hours after formulation injections. Blood was collected into 0.109 M citrate buffer tube and processed by centrifugation at 5000 rpm for 10 minutes. Serum was collected and epo mRNA levels were analyzed. Results are shown at FIG. 14.

Factor VII = test: In vivo mouse Factor VII siRNA knockdown (chromogenic assay of plasma Factor VII protein); design: species or system Female C57BL/6 mice; details: Factor VII siRNA formulations, i.v. tail vein, both at 0.03 and 0.1 mg/kg, plasma at 48 hours; FIG. 15
Procedure: Using a liver-directed in vivo screen of the liposome libraries, a series of compounds were tested that facilitate high levels of siRNA mediated gene silencing in hepatocytes, the cells comprising the liver parenchyma. Factor VII, a blood clotting factor, is a suitable target gene for assaying functional siRNA delivery to liver. Because this factor is produced specifically in hepatocytes, gene silencing indicates successful delivery to parenchyma, as opposed to delivery to the cells of the reticulo-endothelial system (e.g., Kupffer cells). Furthermore, Factor VII is a secreted protein that can be readily measured in serum, obviating the need to euthanize animals. Silencing at the mRNA level can be readily determined by measuring levels of protein. This is because the protein's short half-life (2-5 hour). Compositions with siRNA directed to Factor VII were formulated with ATX-002, ATX-57, and ATX-58, and comparator sample phosphate-buffered saline (PBS). Female C57BL/6 mice (6-8 week old) were used for FVII siRNA knockdown (KD) experiments. […] Plasma was collected and Factor VII protein levels were analyzed by chromogenic assay (Biophen FVII, Aniara Corporation). A standard curve was constructed using samples from PBS-injected mice and relative Factor VII expression was determined by comparing treated groups to untreated PBS control.

epo protein = test: In vivo epo protein expression after delivery of lipid encapsulated mouse epo mRNA (epo ELISA); design: species or system Female Balb/c mice; details: mouse epo mRNA nanoparticles, i.v. tail vein, at 0.1 mg/kg (so in the source), serum at 6 hours; FIG. 16
Procedure: Female Balb/c mice (6-8 week old) were used for evaluation of epo protein expression in vivo following delivery of lipid encapsulated mouse epo mRNA. All formulations were administered intravenously via tail vein injection at a dose of 0.03 and 0.1 mg/kg at a dosing volume of 5 mL/kg. Terminal blood collection was performed via cardiac puncture under 2% isoflurane at 6 hours after formulation injections. Blood was collected into 0.109 M citrate buffer tube and processed by centrifugation at 5000 rpm for 10 minutes. Serum was collected and epo protein levels were analyzed by epo ELISA assay (R&D systems). A standard curve was constructed using samples from PBS-injected mice and relative epo expression was determined by comparing treated groups to untreated PBS control.

Row | Structure (SMILES) | pKa [1] | epo mRNA levels compared with ATX-2 (mouse epo mRNA) | Factor VII knockdown activity compared with ATX-002 (Factor VII) | epo expression compared with ATX-2 (epo protein)
1 | CCCCCC/C=C\COC(=O)CCCCCN(CCC(=O)OC(CCCCCCC)CCCCCCC)C(=O)SCCN(C)C [ATX-82] |  | substantial improvement over ATX-2 |  | 
2 | CCCCCC/C=C\COC(=O)CCCCCN(CCCC(=O)OC(CCCCCCC)CCCCCCC)C(=O)SCCN(C)C [ATX-83] |  | substantial improvement over ATX-2 |  | 
3 | CCCCCC/C=C\COC(=O)CCCN(CCCC(=O)OC(CCCCCC)CCCCCC)C(=O)SCCN(C)C [ATX-86] |  | substantial improvement over ATX-2 |  | 
4 | CCCCCC/C=C\COC(=O)CCCN(CCCC(=O)OC(CCCCCCCC)CCCCCCCC)C(=O)SCCN(C)C [ATX-87] |  | substantial improvement over ATX-2 |  | 

Second part, led by results:

Row | pKa [1] | Structure (SMILES) | epo mRNA levels compared with ATX-2 (mouse epo mRNA) | Factor VII knockdown activity compared with ATX-002 (Factor VII) | epo expression compared with ATX-2 (epo protein)
5 | 6 | CCCCCC/C=C\COC(=O)CCCN(CCCC(=O)OC(CCCCCCC)CCCCCCCC)C(=O)SCCN(C)C (centres unmarked) [ATX-57] | substantial improvement over ATX-2 | substantially more effective than ATX-002 | substantially higher amounts
6 | 6.1 | CCCCCC/C=C\COC(=O)CCCN(CCCC(=O)OC(CCCCCC)CCCCCCC)C(=O)SCCN(C)C (centres unmarked) [ATX-58] |  | substantially more effective than ATX-002 | 
7 | 5.9 | CCCCCC/C=C\COC(=O)CCCN(CCCC(=O)OC(CCCCCCC)CCCCCCC)C(=O)SCCN(C)C [ATX-81] | substantial improvement over ATX-2 |  | 
8 | 6.1 | CCCCCC/C=C\COC(=O)CCCCCN(CCCC(=O)OC(CCCCCC)CCCCCC)C(=O)SCCN(C)C [ATX-84] | substantial improvement over ATX-2 |  | 

Source: US20260131020A1, “IONIZABLE CATIONIC LIPID FOR RNA DELIVERY” (Arcturus Therapeutics, Inc., priority 2016, published 2026)
